For one assay, the system named is HepG2 cells. Nature of the assay: RT-qPCR after GH / GHR-antagonist treatment. Format: cell-based, human. To be noted: 3 days. The method, then:
Following treatments, cells were lysed, and RNA extraction was performed using IBI Tri-isolate kit (IBI), following manufacturer's protocol. RT-qPCR was performed as described previously.
And so, the inventors performed a similar experiment with HepG2 and SK-HEP-1 human liver cancer cells, which have been extensively studied and known to express GHR, to verify this observation in human melanoma cells. In vitro, HepG2 cells were treated for 3 days with either 50 ng/mL GH (2.5 nM), or 50 nM […], or both GH and GHR-antagonist, and their RNA expressions were compared against untreated controls at basal condition (i.e. no drug treatment).
The inventors had previously shown that knock-down of GHR in turn strongly attenuates MET as well as HGF transcript levels in human melanoma. To verify this observation in another GHR expressing human cancer like HCC, the inventors analyzed the effects of GH and GHR-antagonist treatment on the expression of the oncogenic HGF-MET loop in human liver cancer cells. HepG2 and SK-HEP-1 cells were treated for 3 days with either 50 ng/mL GH (2.5 nM), or 50 nM GHR-antagonist, or both, and their RNA expressions were compared against untreated controls at basal levels (i.e. no drug treatment). No additional effect of added GH on the expression levels of HGF or MET in the liver cancer cell lines was observed, except a 2-fold increase in MET levels in SK-HEP-1 cells (FIG. 39). […] Irrespective of presence of added GH, the antagonist lowered HGF levels by >4-fold in Hep-G2 cells and up to 2-fold in SK-HEP-1 cells; while the MET levels were decreased by >2-fold in both Hep-G2 and SK-HEP-1 cells compared to the GH treated samples (FIG. 39). This observed nature of the suppressive effect of GHR-antagonist strongly indicates the existence of a autocrine/paracrine GH action in HCC, as the inventors had found stable GH expression in both Hep-G2 and SK-HEP-1 cells.
Background: Quantitative PCR measures a nucleic acid by following its amplification.

The next assay deals with four melanoma cell lines. The assay is described as follows: Cell proliferation / EC50 determination. To be noted: serum concentration in media 1%.
The next assay relates to melanoma cells. The assay is described as follows: Migration, invasion, clonogenicity with excess GH. The following applies: up to 150 ng/ml GH. Format: cell-based, human. How it is done: Cell migration assays are standard methods of estimating the repair and regenerative properties of cells. In this example, the Radius Cell Migration Assay design from Cell Biolabs (Cell Biolabs #CBA-125, San Diego, Calif.) was used, and experiments were performed as per the manufacturer's protocol. In this assay, a 24-well plate containing a non-toxic, 0.68 mm biocompatible hydrogel spot is present at the center of the well, which spot prevents the attachment of cells. siRNA treated cells were trypsinized 48 hours post-transfection, counted, and seeded at 5000 cells/well in a pretreated hydrogel spot-containing 24-well plate. […] Images were captured every 24 hours using a 4× objective (total magnification 40×) employing an inverted Olympus IX70 microscope fitted with a Retiga 1300 camera (QImaging, Surrey, BC). Total uncovered area at the beginning and end of assay were quantitated using ImageJ software, Experiments were performed in triplicates.
The 96-well 3D spheroid BME cell invasion assay (Trevigen, Gaithersburg, Md.) was used to evaluate the ability of cells to invade surrounding tissue. […] The invasive behavior of the cells was monitored every 24 hours for up to 72 hours. […] Total pixels at the beginning and end of assay were quantitated using ImageJ software. […]
Colony formation on soft agar assay was next examined using a high-throughput fluorescent readout. […]

Protocol for four melanoma cell lines: A 1% (w/v) resazurin (Sigma-Aldrich #R7017) solution in 1× PBS was made and filter-sterilized. The final concentration of resazurin in the assay was 0.004%. Inside the proliferating cells, mildly fluorescent blue resazurin is reduced to a bright pink fluorescent product called resorufin (stable for 4 hours), which allows for a quantitative measure of the percentage of proliferating cells. In all cases, cells were incubated at 37° C. in 5% CO2 for 45-60 min. for adequate sensitivity of detection. Briefly, cells were seeded at 10,000 cells/cm^2 into 96-well plates and transfected as described above. The resazurin assay was performed 60 hours after transfection (unless specified otherwise) and resorufin absorbance was measured at 570 nm (reference wavelength=600 nm) using Spectramax250 (Molecular Devices, Sunnyvale, Calif.) and SoftmaxPro software.
More specifically, SK-MEL-28 cells (FIG. 8A, panel 1), MALME-3M cells (FIG. 8A, panel 2), MDA-MB-435 cells (FIG. 8A, panel 3), and SK-MEL-5 cells (FIG. 8A, panel 4) were treated with increasing doses of hGH for 48 hr. and cell proliferation was estimated using a resazurin-based metabolic assay.
For treatment of melanoma cells, the following five anti-tumor compounds were obtained from the sources mentioned: cisplatin (Calbiochem #232120, Darmstadt, Germany), doxorubicin (Sigma Aldrich #D-1515, St. Louis, Mo.), oridonin (Sigma-Aldrich #O-9639, St. Louis, Mo.), Paclitaxel (Sigma-Aldrich #C-7191), and vemurafenib/PLX4032 (ApexBio #A-3004, Houston, Tex.). […] In the subsequent experiments, the following drug concentrations were used unless specified otherwise: cisplatin (0.5 μM), doxorubicin (10 nM), oridonin (0.5 μM), paclitaxel (1 nM), vemurafenib (2 nM). Treatments were performed for 24 hours starting 48 hours post-transfection with siRNA.

Turning to “hGH: Recombinant human growth hormone, Antibodies Online #ABIN2017921”, in the assay on HepG2 cells (50 ng/mL GH), the “RNA level of CDH1, the epithelial marker” value was “downregulating” and the “RNA levels of mesenchymal marker vimentin” value is on record as “significantly upregulate”. Further, the “levels of ABCC4 and of the transcription factor SPI-B” value with HepG2 cells (exogenous GH 50 ng/mL) is “markedly upregulated”. Further, the “minimum hGH concentration for a significant difference in cell proliferation” value with four melanoma cell lines is 50 ng/mL. For the same substance, the “melanoma migration, invasion, or clonogenicity upon incubation with excess GH” value with melanoma cells was “No marked increase”.

The values above are taken from patent publication US11473088B2, “Method of treating cancer and method of sensitizing cancer cells to the action of chemotherapeutic agents via growth hormone receptor antagonists or knock down” (Ohio University, priority 2016, dated 2022).
